Common to all, as to assay type: cell-based
The subject of test [1] is adipocytes differentiated from normal human subcutaneous preadipocytes. The test is described as follows: Lipolysis test in adipocytes (free glycerol in culture supernatant). To be noted: 10 μM isoproterenol, 24 hours, No addition=100%. As for the experimental part: Normal human subcutaneous preadipocytes were precultured using the growth medium in the same manner as in Example 1. The cells were detached using 0.25% trypsin-EDTA, seeded at 10,000 cells/100 μL/well to a 96-well plate using the growth medium, and cultured overnight in a CO2 incubator. On the next day, the medium was replaced with the differentiation medium (100 μL), and the cells were cultured for 10 days in a CO2 incubator to induce their differentiation into adipocytes. On the fourth and seventh days after the differentiation induction, the medium was replaced with a fresh differentiation medium (100 μL). Next, the medium was replaced with a differentiation medium supplemented with varying concentrations of steviol (10, 30 or 100 μg/mL, dissolved in 0.1% DMSO (final concentration)), and the cells were cultured for 24 hours in a CO2 incubator. Then, a free glycerol level in a culture supernatant was measured using Adipolysis Assay Kit (Cat. No. 10009381, Cayman Chemical Co.) according to the manufacturer's protocol. For the measurement, absorbance (540 nm) was measured using a plate reader (VARIOSKAN FLASH, Thermo Fisher Scientific Inc.), and a relative free glycerol concentration was calculated. A differentiation medium supplemented with 10 μM isoproterenol (ISP) was used as a positive control, and a vehicle control (DMSO) composed of a differentiation medium supplemented with 0.1% DMSO (final concentration) and a no-addition control composed of only the differentiation medium were used as negative controls. Significant difference among the test groups to be compared (no-addition group vs positive control group, vehicle control group vs steviol addition group) was tested by the Student's t test. The two-tailed test was conducted, and P<0.05 was regarded as having significant difference.

Test [2] relates to HepG2 cells. Kind of test: TG accumulation test in hepatocytes (Adipogenesis Assay Kit, oleic acid). To be noted: 2 mM metformin, 0.2 mM oleic acid, 24 hours, DMSO=100%. As for the experimental part: HepG2 cells were precultured using the growth medium in the same manner as in Example 5. The cells were detached using 0.25% trypsin-EDTA, seeded at 30,000 cells/100 μL/well to a 96-well plate using the growth medium, and cultured overnight in a CO2 incubator. On the next day, the medium was replaced with 100 μL of a test medium (DMEM (high glucose) supplemented with 0.2 mM oleic acid (Cat. No. 03008, Sigma-Aldrich), 10% FBS and 1% penicillin-streptomycin) supplemented with varying concentrations of steviol (12.5, 25, 50, 100 or 200 μg/mL, dissolved in 0.1% DMSO (final concentration)). The cells were cultured for 24 hours in a CO2 incubator. A test medium supplemented with 2 mM metformin (Cat. No. M2009, Tokyo Chemical Industry Co., Ltd.) was used as a positive control (Metformin), and a vehicle control composed of a test medium supplemented with 0.1% DMSO (final concentration) was used as a negative control (DMSO). Cells cultured in a test medium containing no oleic acid was used as an untreated control (Untreated). The cells thus cultured were subjected to oil red staining in the same manner as in Example 3, followed by photographing and calculation of a relative fat accumulation level. An intracellular triglyceride (TG) level in cells separately cultured under the same conditions as in the cells employed in the oil red staining was quantified using Adipogenesis Assay Kit (BioVision Inc.) according to the manufacturer's protocol. Absorbance (570 nm) was measured using a plate reader (VARIOSKAN FLASH, Thermo Fisher Scientific Inc.), and a relative TG level was calculated. Significant difference of untreated group vs fat accumulation induction group (negative control group) was tested (two-tailed) by the Student's t test as to the relative fat accumulation level and the relative TG level, and P<0.05 was regarded as having significant difference. Also, significant difference of negative control group vs steviol addition group/positive control group was tested (two-tailed) by the Dunnett test, and P<0.05 was regarded as having significant difference. The results of the fat accumulation test are shown in Table 6 and FIG. 6, and the results of the TG accumulation test are shown in Table 7 and FIG. 7.

Test [3] deals with HepG2 cells. Kind of test: Fat accumulation test in hepatocytes (oil red staining, oleic acid). The note with it: 2 mM metformin, 0.2 mM oleic acid, 24 hours, DMSO=100%. How it is done: Normal human subcutaneous preadipocytes were precultured using the growth medium in the same manner as in Example 1. The cells were detached using 0.25% trypsin-EDTA, seeded at 10,000 cells/100 μL/well to a 96-well plate using a growth medium, and cultured overnight in a CO2 incubator. On the next day, the medium was replaced with 100 μL of a differentiation medium supplemented with varying concentrations of steviol (12.5, 25, 50, 100 or 200 μg/mL, dissolved in 0.1% DMSO (final concentration)). The cells were cultured for 10 days in a CO2 incubator to induce their differentiation into adipocytes. On the fourth and seventh days after the differentiation induction, the medium was replaced with a fresh medium (100 μL) having the same composition as above. A differentiation medium supplemented with 25 mM LiCl (Cat. No. SML0559, Sigma-Aldrich Co., LLC) was used as a positive control, and a differentiation medium supplemented with 0.1% DMSO (final concentration) was used as a negative control. Cells cultured in a growth medium were used as an untreated control (Untreated). The cells thus cultured were subjected to oil red staining. Specifically, the cells were washed twice with 100 μL of DPBS (Cat. No. 14190250, Thermo Fisher Scientific Inc.). Then, the cells were fixed (room temperature, 10 min) in 100 μL of a 10% formalin solution (Cat. No. 061-00416, FUJIFILM Wako Pure Chemical Corp.). The cells were washed twice with 100 μL of DPBS, then incubated for 1 minute in 100 μL of 60% 2-propanol (Cat. No. 166-04836, FUJIFILM Wako Pure Chemical Corp.) that replaced the medium, and stained for 15 minutes in 100 μL of an oil red staining solution (Cat. No. 00625, Sigma-Aldrich Co., LLC) that replaced the 2-propanol solution. The cells were washed once with 100 μL of 60% 2-propanol and washed twice with 100 μL of DPBS. Then, cell images were taken in 100 μL of DPBS. After subsequent replacement with 120 μL of 100% 2-propanol, oil red was extracted by incubation for 5 minutes, and 100 μL of the extracts was transferred to each well of a fresh 96-well plate. Absorbance (520 nm) was measured using a plate reader (VARIOSKAN FLASH, Thermo Fisher Scientific Inc.), and a relative fat accumulation level was calculated. Significant difference of differentiation non-induced group vs differentiation induced group (negative control group) was tested (two-tailed), and P<0.05 was regarded as having significant difference. Also, significant difference of negative control group vs steviol addition group/positive control group was tested (two-tailed) by the Dunnett test, and P<0.05 was regarded as having significant difference. […] HepG2 cells were precultured using the growth medium in the same manner as in Example 5. The cells were detached using 0.25% trypsin-EDTA, seeded at 30,000 cells/100 μL/well to a 96-well plate using the growth medium, and cultured overnight in a CO2 incubator. On the next day, the medium was replaced with 100 μL of a test medium (DMEM (high glucose) supplemented with 0.2 mM oleic acid (Cat. No. 03008, Sigma-Aldrich), 10% FBS and 1% penicillin-streptomycin) supplemented with varying concentrations of steviol (12.5, 25, 50, 100 or 200 μg/mL, dissolved in 0.1% DMSO (final concentration)). The cells were cultured for 24 hours in a CO2 incubator. A test medium supplemented with 2 mM metformin (Cat. No. M2009, Tokyo Chemical Industry Co., Ltd.) was used as a positive control (Metformin), and a vehicle control composed of a test medium supplemented with 0.1% DMSO (final concentration) was used as a negative control (DMSO). Cells cultured in a test medium containing no oleic acid was used as an untreated control (Untreated). The cells thus cultured were subjected to oil red staining in the same manner as in Example 3, followed by photographing and calculation of a relative fat accumulation level. […]

Test [4] relates to adipocytes differentiated from normal human subcutaneous preadipocytes. Kind of test: Sugar uptake test in adipocytes (intracellular 2DG6P, Glucose Uptake-Glo). The note with it: 100 μM acadesine (AICAR), 4 hours, No addition=100%. As for the experimental part: Normal human subcutaneous preadipocytes were precultured using the growth medium in the same manner as in Example 1. The cells were detached using 0.25% trypsin-EDTA, seeded at 10,000 cells/100 μL/well to a 96-well plate using the growth medium, and cultured overnight in a CO2 incubator. On the next day, the medium was replaced with the differentiation medium (100 μL). The cells were cultured for 10 days in a CO2 incubator to induce their differentiation into adipocytes. On the fourth and seventh days after the differentiation induction, the medium was replaced with a fresh differentiation medium (100 μL). Next, the medium was replaced with 100 μLL of a serum-free medium (PBM-2 medium supplemented with 2 mM L-glutamine, 50 μg/mL gentamycin, and 37 ng/mL amphotericin-B, Cat. No. PT-8002, Lonza Group AG), and the cells were cultured for 18 hours in a CO2 incubator. Subsequently, the medium was replaced with 100 μL of a glucose-free serum-free medium (DMEM, no glucose, Cat. No. 11966025, Thermo Fisher Scientific Inc.) supplemented with varying concentrations of steviol (10, 30 or 100 μg/mL, dissolved in 0.1% DMSO (final concentration)), and the cells were cultured for 4 hours in a CO2 incubator. A glucose-free serum-free medium supplemented with 100 μM acadesine (AICAR, Cat. No. A9978, Sigma-Aldrich Co., LLC) was used as a positive control, and a vehicle control composed of a glucose-free serum-free medium supplemented with 0.1% DMSO (final concentration) and a no-addition control composed of only a glucose-free serum-free medium were used as negative controls. After culture, intracellular 2-deoxyglucose-6-phosphate (2DG6P, 2-deoxyglucose (2DG) phosphorylation product) level was measured by the following procedures using Glucose Uptake-Glo Assay kit (Cat. No. J1341, Promega Corp.). The medium of each well was replaced with a DPBS solution (50 μL) supplemented with 1 mM 2DG. After incubation at room temperature for 10 minutes, a stop buffer (25 μL), a neutralization buffer (25 μL), and a 2DG6P detection reagent (100 μL) were added thereto. After incubation at room temperature for 60 minutes, luminescence intensity was measured using a plate reader (VARIOSKAN FLASH, Thermo Fisher Scientific Inc.), and relative luminescence intensity was regarded as a relative intracellular 2DG6P level. Significant difference among the test groups to be compared (no-addition group vs positive control group, vehicle control group vs steviol addition group) was tested by the Student's t test. The two-tailed test was conducted, and P<0.05 was regarded as having significant difference.

The subject of test [5] is normal human subcutaneous preadipocytes differentiated into adipocytes. Kind of test: Fat accumulation test in adipocytes (oil red staining). To be noted: 25 mM LiCl, 10 days, DMSO=100%. How it is done: Normal human subcutaneous preadipocytes were precultured using the growth medium in the same manner as in Example 1. The cells were detached using 0.25% trypsin-EDTA, seeded at 10,000 cells/100 μL/well to a 96-well plate using a growth medium, and cultured overnight in a CO2 incubator. On the next day, the medium was replaced with 100 μL of a differentiation medium supplemented with varying concentrations of steviol (12.5, 25, 50, 100 or 200 μg/mL, dissolved in 0.1% DMSO (final concentration)). The cells were cultured for 10 days in a CO2 incubator to induce their differentiation into adipocytes. On the fourth and seventh days after the differentiation induction, the medium was replaced with a fresh medium (100 μL) having the same composition as above. A differentiation medium supplemented with 25 mM LiCl (Cat. No. SML0559, Sigma-Aldrich Co., LLC) was used as a positive control, and a differentiation medium supplemented with 0.1% DMSO (final concentration) was used as a negative control. Cells cultured in a growth medium were used as an untreated control (Untreated). The cells thus cultured were subjected to oil red staining. Specifically, the cells were washed twice with 100 μL of DPBS (Cat. No. 14190250, Thermo Fisher Scientific Inc.). Then, the cells were fixed (room temperature, 10 min) in 100 μL of a 10% formalin solution (Cat. No. 061-00416, FUJIFILM Wako Pure Chemical Corp.). The cells were washed twice with 100 μL of DPBS, then incubated for 1 minute in 100 μL of 60% 2-propanol (Cat. No. 166-04836, FUJIFILM Wako Pure Chemical Corp.) that replaced the medium, and stained for 15 minutes in 100 μL of an oil red staining solution (Cat. No. 00625, Sigma-Aldrich Co., LLC) that replaced the 2-propanol solution. The cells were washed once with 100 μL of 60% 2-propanol and washed twice with 100 μL of DPBS. Then, cell images were taken in 100 μL of DPBS. After subsequent replacement with 120 μL of 100% 2-propanol, oil red was extracted by incubation for 5 minutes, and 100 μL of the extracts was transferred to each well of a fresh 96-well plate. Absorbance (520 nm) was measured using a plate reader (VARIOSKAN FLASH, Thermo Fisher Scientific Inc.), and a relative fat accumulation level was calculated. Significant difference of differentiation non-induced group vs differentiation induced group (negative control group) was tested (two-tailed), and P<0.05 was regarded as having significant difference. Also, significant difference of negative control group vs steviol addition group/positive control group was tested (two-tailed) by the Dunnett test, and P<0.05 was regarded as having significant difference.

Structures are written as SMILES.

Take `CC(C)NCC(O)c1ccc(O)c(O)c1` (centres unmarked) [ISP, isoproterenol, reference compound]: the “Relative lipolysis level (%)” value in test [1] is listed as 184.4%.

In the case of `CN(C)C(=N)N=C(N)N` [Metformin, metformin, reference compound], in test [2], the “Relative TG level (%)” value amounted to 76.0%. For the same compound, in test [3], the “Relative fat accumulation level (%)” value is given as 79.4%. As to `NC(=O)c1ncn([C@@H]2O[C@H](CO)[C@@H](O)[C@H]2O)c1N` [AICAR, acadesine, reference compound], the “Relative luminescence intensity (%) (relative intracellular 2DG6P level)” value in test [4] is given as 194.9%.

With `[Cl-].[Li+]` [LiCl, reference compound], the “Relative fat accumulation level (%)” value in test [5] amounted to 56.3%.

The values are drawn from patent US20230057359A1, “NOVEL USE OF STEVIOL” (SUNTORY HOLDINGS LIMITED, priority 2019, published 2023).
